Data from US9204645B2, “Insecticidal aromatic amides” (BAYER INTELLECTUAL PROPERTY GMBH, priority 2011, dated 2015).
Where two headings read alike, the source gives them in different places.

Assays:
[1] = logP determination by HPLC on a reversed-phase column (C18), EEC Directive 79/831 Annex V.A8; format: physicochemical; conditions: HPLC-MS, C18, acetonitrile (0.1% formic acid)/water (0.09% formic acid) gradient, read-out: log P
Description: HPLC-MS^a): mass (m/z)=462 […]. ^a) Note regarding the determination of the logP values and mass detection: The determination of the given logP values was carried out in accordance with EEC Directive 79/831 Annex V.A8 by HPLC (High Performance Liquid Chromatography) on a reversed-phase column (C18). Agilent 1100 LC system; 50*4.6 Zorbax Eclipse Plus C18 1.8 micron; mobile phase A: acetonitrile (0.1% formic acid); mobile phase B: water (0.09% formic acid); linear gradient from 10% acetonitrile to 95% acetonitrile in 4.25 min, then 95% acetonitrile for a further 1.25 min; oven temperature 55° C.; flow rate: 2.0 ml/min Mass detection is via an Agilent MSD system.
The calibration is carried out using unbranched alkan-2-ones (having 3 to 16 carbon atoms) with known logP values (determination of the logP values by the retention times using linear interpolation between two successive alkanones). The lambda-maX values were determined in the maxima of the chromatographic signals using the UV spectra from 200 nm to 400 nm.

[2] = tested on: larvae of the mustard beetle (Phaedon cochleariae); assay: Phaedon cochleariae spray test (PHAECO); format: in vivo; conditions: for inhibition at 20 g/ha / inhibition at 100 g/ha: Phaedon cochleariae, 168 h; for inhibition at 20 g/ha: read-out: % Activity; for efficacy compared to similar compounds of the prior art: PHAECO spray test
Description: Phaedon Cochleariae—Spray Test (PHAECO)
(§1) • Solvents: 78.0 parts by weight of acetone • 1.5 parts by weight of dimethylformamide • Emulsifier: 0.5 part by weight of alkylaryl polyglycol ether
(§2) To produce a suitable preparation of active compound, 1 part by weight of active compound is mixed with the stated amounts of solvents and emulsifier, and the concentrate is diluted with emulsifier-containing water to the desired concentration.
After the desired period of time, the effect in % is determined 100% means that all of the beetle larvae have been killed; 0% means that none of the beetle larvae have been killed.

[3] = tested on: green peach aphid (Myzus persicae); assay: Myzus spray test (MYZUPE); format: in vivo; conditions: for inhibition at 20 g/ha / inhibition at 100 g/ha / inhibition at 500 g/ha: Myzus persicae, 144 h; for inhibition at 20 g/ha / inhibition at 100 g/ha: read-out: % Activity; for efficacy compared to similar compounds of the prior art: MYZUPE spray test
Description: Myzus—Spray Test (MYZUPE)
as §1, §2
Discs of Chinese cabbage leaves (Brassica pekinensis) infested by all stages of the green peach aphid (Myzus persicae) are sprayed with an active compound preparation of the desired concentration.
After the desired period of time, the effect in % is determined. 100% here means that all of the aphids have been killed; 0% means that no aphids have been killed.

[4] = tested on: greenhouse red spider mite (Tetranychus urticae); assay: Tetranychus urticae spray test, OP-resistant (TETRUR), bean leaf discs; format: in vivo; conditions: for inhibition at 500 g/ha / inhibition at 100 g/ha: Tetranychus urticae, foliar, 144 h, read-out: % Activity; for efficacy compared to similar compounds of the prior art: TETRUR spray test, leaf discs
Description: Tetranychus urticae—Spray Test; OP-resistant (TETRUR)
as §1, §2
Discs of bean leaves (Phaseolus vulgaris) which are infested by all stages of the greenhouse red spider mite (Tetranychus urticae) are sprayed with an active compound preparation of the desired concentration.
After the desired period of time, the effect in % is determined. 100% means that all of the spider mites have been killed; 0% means that none of the spider mites have been killed.

[5] = tested on: caterpillars of the armyworm (Spodoptera frugiperda); assay: Spodoptera frugiperda spray test (SPODFR); format: in vivo; conditions: 168 h, 7 dat
Description: Spodoptera frugiperda—Spray Test (SPODFR)
as §2, with “• Solvents: 78.0 parts by weight of acetone • 1.5 parts by weight of dimethylformamide • Emulsifier: 0.5 part by weight of alkylaryl polyglycol ether • To” for “To”
Leaf discs of maize (Zea mays) are sprayed with an active compound preparation of the desired concentration and, after drying, populated with caterpillars of the armyworm (Spodoptera frugiperda).
After the desired period of time, the effect in % is determined. 100% means that all of the caterpillars have been killed; 0% means that none of the caterpillars have been killed.

## Cn1nc(C(F)(F)C(F)(F)F)c([N+](=O)[O-])c1C(=O)O [1-Methyl-4-nitro-3-(pentafluoroethyl)-1H-pyrazole-5-carboxylic acid]
[1]
  chromatographic logP: 1.41

## CCC(=O)NC(C)c1cc(NC(=O)c2c(C(F)(F)F)c(C(F)(F)C(F)(F)F)nn2C)ccc1Cl (stereo not shown) [Am-28, N-{4-chloro-3-[1-(propionylamino)ethyl]phenyl}-1-methyl-3-(pentafluoroethyl)-4-(trifluoromethyl)-1H-pyrazole-5-carboxamide]
[1]
  chromatographic logP: 3.55

## CCCC(=O)NCc1cc(NC(=O)c2c(C(F)(F)F)c(C(F)(F)C(F)(F)F)nn2C)ccc1Cl [Am-41, N-{3-[(butyrylamino)methyl]-4-chlorophenyl}-1-methyl-3-(pentafluoroethyl)-4-(trifluoromethyl)-1H-pyrazole-5-carboxamide]
[1]
  chromatographic logP: 3.7

## CCC(=O)NCc1cc(N(C)C(=O)c2c(C(F)(F)F)c(C(F)(F)C(F)(F)F)nn2C)ccc1F [Example 1]
[2]
  inhibition at 20 g/ha: 100%
[3]
  inhibition at 20 g/ha: 90%
[4]
  inhibition at 500 g/ha: 100%

## CCN(C(=O)c1c(C(F)(F)F)c(C(F)(F)C(F)(F)F)nn1C)c1ccc(F)c(CNC(=O)C2CC2)c1 [Example 2]
[3]
  efficacy compared to similar compounds of the prior art: superior efficacy
  inhibition at 100 g/ha: 90%
[4]
  efficacy compared to similar compounds of the prior art: superior efficacy
  inhibition at 100 g/ha: 100%

## CCC(=O)NCc1cc(N(CC)C(=O)c2c(C(F)(F)F)c(C(F)(F)C(F)(F)F)nn2C)ccc1F [Example 3]
[2]
  efficacy compared to similar compounds of the prior art: superior efficacy
[2]; PHAECO, 20 g/ha, 7 dat
  inhibition at 20 g/ha: 100%
[3]
  efficacy compared to similar compounds of the prior art: superior efficacy
[3]; MYZUPE, 20 g/ha, 6 dat
  inhibition at 20 g/ha: 100%
[4]
  efficacy compared to similar compounds of the prior art: superior efficacy
[4]; TETRUR, 500 g/ha, 6 dat
  inhibition at 500 g/ha: 100%

## CCC(=O)NCc1cc(NC(=O)c2c(C(F)(F)F)c(C(F)(F)C(F)(F)F)nn2C)ccc1F [Example 4]
[2]
  efficacy compared to similar compounds of the prior art: superior efficacy
[2]; PHAECO, 20 g/ha, 7 dat
  inhibition at 20 g/ha: 100%
[3]
  efficacy compared to similar compounds of the prior art: superior efficacy
[3]; MYZUPE, 6 dat
  inhibition at 500 g/ha: 100%
[4]
  efficacy compared to similar compounds of the prior art: superior efficacy
[4]; TETRUR, 500 g/ha, 6 dat
  inhibition at 500 g/ha: 100%

## CCC(=O)NCc1c(F)ccc(NC(=O)c2c(C(F)(F)F)c(C(F)(F)C(F)(F)F)nn2C)c1F [Example 6]
[2]
  efficacy compared to similar compounds of the prior art: superior efficacy
[2]; PHAECO, 7 dat
  inhibition at 100 g/ha: 100%
[5]
  inhibition at 100 g/ha: 100%

## CC(=O)NCc1c(F)ccc(N(C)C(=O)c2c(C(F)(F)F)c(C(F)(F)C(F)(F)F)nn2C)c1F [Example 7, N-[3-(acetamidomethyl)-2,4-difluorophenyl]-N,1-dimethyl-3-(pentafluoroethyl)-4-(trifluoromethyl)-1H-pyrazole-5-carboxamide]
[1]
  chromatographic logP: 2.85
[2]; PHAECO, 7 dat
  inhibition at 100 g/ha: 100%
[3]; MYZUPE, 6 dat
  inhibition at 500 g/ha: 100%
[4]; TETRUR, 500 g/ha, 6 dat
  inhibition at 500 g/ha: 100%

## CC(=O)NCc1cc(N(C)C(=O)c2c(C(F)(F)F)c(C(F)(F)C(F)(F)F)nn2C)ccc1F [Example 8]
[3]; MYZUPE, 6 dat
  inhibition at 500 g/ha: 100%
[4]; TETRUR, 500 g/ha, 6 dat
  inhibition at 500 g/ha: 100%

## CCN(C(=O)c1c(C(F)(F)F)c(C(F)(F)C(F)(F)F)nn1C)c1ccc(F)c(CNC(C)=O)c1 [Example 9]
[3]
  efficacy compared to similar compounds of the prior art: superior efficacy
[3]; MYZUPE, 20 g/ha, 6 dat
  inhibition at 20 g/ha: 100%
[4]
  efficacy compared to similar compounds of the prior art: superior efficacy
[4]; TETRUR, 500 g/ha, 6 dat
  inhibition at 500 g/ha: 100%

## CN(C(=O)c1c(C(F)(F)F)c(C(F)(F)C(F)(F)F)nn1C)c1cccc(CNC(=O)C2CC2)c1 [Example 10]
[3]; MYZUPE, 100 g/ha, 6 dat
  inhibition at 100 g/ha: 100%
[4]; TETRUR, 500 g/ha, 6 dat
  inhibition at 500 g/ha: 100%

## CC(=O)NCc1c(F)ccc(NC(=O)c2c(C(F)(F)F)c(C(F)(F)C(F)(F)F)nn2C)c1F [Example 11]
[2]; PHAECO, 7 dat
  inhibition at 100 g/ha: 100%
[4]; TETRUR, 500 g/ha, 6 dat
  inhibition at 500 g/ha: 90%

## CCC(=O)NCc1cc(NC(=O)c2c(C(F)(F)F)c(C(F)(F)F)nn2C)ccc1F [Example 201]
[3]
  efficacy compared to similar compounds of the prior art: superior efficacy
[3]; MYZUPE, 20 g/ha, 6 dat
  inhibition at 20 g/ha: 100%
[4]
  efficacy compared to similar compounds of the prior art: superior efficacy
[4]; TETRUR, 100 g/ha, 6 dat
  inhibition at 100 g/ha: 100%
